Earlier results, collected in patent EP1482795B1, “NEW IMMU[…]” (CORIXA CORPORATION, priority 2002, dated 2003).

Substance: Monophosphoryl lipid A [MPL® immunostimulant]
- doses that can be safely administered to humans: at least 20 µg/kg
- dose levels at which increases in temperature, flu-like symptoms, increasing heart rate and modest decreases in blood pressure can occur (humans, some patients): ≥ 0.01 mg/kg
